Results as given in US8440610B2, “Mapkap kinase-2 as a specific target for blocking proliferation of P53-defective cells” (Massachusetts Institute of Technology, priority 2004, dated 2013).

Tests used:
[1] = test system: U2OS cells; test: FACS cell cycle analysis (PI, phospho-histone H3) in U2OS cells; format: cell-based, human; settings: MAPKAP kinase-2 depleted U2OS cells; 10 μM drug, nocodazole added three hours later, thirty hours
Method: Asynchronous MAPKAP kinase-2 or luciferase shRNA knockdown cells were mock treated or exposed to doxorubicin for thirty hours, and cell cycle progression was monitored by FACS. In one set of experiments, the spindle poison nocodazole was added to the media three hours after addition of doxorubicin, to cause any cells progressing through the cell cycle to arrest in mitosis. DNA content was monitored by PI staining; phospho-histone-H3 staining was used as an indicator of mitotic entry. As shown in the left panels of FIG. 14A, treatment of control luciferase shRNA knockdown cells with doxorubicin led to the accumulation of cells with 4N DNA content, and a lack of phospho-histone-H3 staining in either the absence or presence of nocodazole. The cells expressing the luciferase shRNAs behaved identically to the untransfected doxorubicin-treated control U2OS cell population (FIG. 24B), with the prominent 4N DNA component and the absence of phospho-histone-H3 staining indicative of an intact G2/M checkpoint.
In contrast to the G2/M checkpoint response observed in doxorubicin-treated cells, treatment with the DNA intra-strand cross-linker cisplatin caused U2OS cells to predominantly accumulate in the G1 and S phases of the cell cycle over the subsequent thirty hours (FIG. 24C). RNA interference was used to investigate the role of MAPKAP kinase-2 in this process. […] Strikingly, when nocodazole was added three hours following cisplatin addition, the MAPKAP kinase-2 depleted cells accumulated in a 4N DNA containing peak with ˜42% of the cells staining strongly for phospho-histone H3. Identical results were obtained in cells treated with a second unrelated siRNA sequence against MAPKAP kinase-2.
FACS analysis. UV irradiation was performed at 254 nm (UV-C) using a Stratalinker 2400 (Stratagene). U2OS cells were fixed in 70% ethanol overnight at −20° C., permeabilized with PBS containing 0.2% Triton X-100 for twenty minutes at 4° C., blocked with 2% FBS in PBS, and incubated with 1 μg of anti-phospho-histone H3 per 10^6 cells for sixty minutes on ice. […]

[2] = test system: U2OS cells; test: Clonogenic survival assay in U2OS cells; format: cell-based, human; settings: 10 μM cisplatin or 1 μM doxorubicin for eight hours, colonies after eight days
Method: The experiments in FIGS. 15A-15C and 16A-16D indicate that MAPKAP kinase-2 is critical for cisplatin- and doxorubicin-triggered G1/S and G2/M arrest. These checkpoint defects in MAPKAP kinase-2 depleted cells might render them more sensitive to the antiproliferative and cytotoxic effects of chemotherapy. To investigate this, control or MAPKAP kinase-2 knockdown U2OS cells were mock treated or incubated with increasing doses of cisplatin or doxorubicin for eight hours, washed, trypsinized and replated, and assayed for colony formation eight days later (FIGS. 16A-16B). […] For example, luciferase shRNA cells treated with either 10 μM cisplatin or 1 μM doxorubicin formed ˜40% of the number of colonies as those formed by untreated cells, while in MAPKAP kinase-2-depleted cells, these same cisplatin and doxorubicin treatments reduced the number of colonies to only 4% and 2%, respectively, of those seen in the untreated cells.
Clonogenic survival assay. Cells were either mock-treated or treated with increasing doses of doxorubicin or cisplatin. After eight hours of treatment, cells were washed three times with growth media and three times with PBS, trypsinized and replated at a concentration of 5000 cells/10 cm^2 dish. After eight days, cells were fixed and stained with 0.1% crystal violet (Sigma-Aldrich). Colonies consisting of >50 cells were counted, and surviving fractions were determined by normalization against untreated cells. Experiments were performed in triplicate and are plotted as mean values with standard deviations indicated by the error bars.

[3] = test system: H-Ras-V12 transformed p53−/− MEFs; test: Tumor regression assay of established tumors in nude mice; format: in vivo; settings: MK2 depleted tumors; for tumor diameter at start of treatment: before treatment; for tumor diameter after fourteen days of treatment: cisplatin 2 mg/kg or doxorubicin 4 mg/kg intraperitoneal 3× per week
Method: For tumor regression assays, H-Ras-V12 transformed p53^−/− MEFs were stably transfected with a lentiviral transfer vector encoding for shRNA targeting either MAPKAP kinase-2 or luciferase. 10^6 cells were injected into the flanks of nude mice as above, and tumors were allowed to form for twelve days. Mice were then treated with either cisplatin (2 mg/kg, intraperitoneal administration 3× per week) or doxorubicin (4 mg/kg, intraperitoneal administration 3× per week), monitored for a total of twenty-six days, and then sacrificed. Tumor diameter was measured periodically during growth and tumors were weighed at the endpoint. Experiments were performed in quadruplicate, and data plotted as sample means with error bars showing standard deviation.
We investigated whether the chemo-sensitizing effect of MK2 depletion in p53 null cells in culture could also be observed when pre-existing p53 deficient tumors were treated with DNA damaging drugs in vivo. In these experiments HRas-V12 transformed p53^−/− MEFs were stably transfected with control shRNA or MK2 shRNA expressed from a murine U6 promoter, using a lentiviral delivering system (FIG. 18A). The lentiviral transfer vector also encoded GFP under the control of a CMV promoter, allowing for fluorescent detection of tumors in situ. Tumors were induced by injection of 10^6 cells into the flanks of nude mice. Twelve days later ˜1 cm diameter tumors had formed at all injection sites, and treatment with cisplatin, doxorubicin, or vehicle was begun (FIG. 18B). In the absence of treatment with DNA damaging drugs, the tumors arising from the MK2 depleted cells in the right flanks of these animals grew slightly larger than those of the luciferase shRNA control cells in the left flanks (FIG. 18B-18D). […] Tumors depleted of MK2 shrank from 1.3 cm to 0.4 cm over fourteen days when treated with cisplatin, and from 1.4 to 0.5 cm when treated with doxorubicin. Thus, the sensitizing effect of MK2 depletion on DNA damage induced cell death in p53-deficient primary cells observed in cell culture was also maintained in vivo.

[4] = MAPKAP kinase-2-depleted U2OS cells

Row | SMILES | cells staining positively for phospho-histone H3 [1] [%] | number of colonies relative to untreated cells [2, 4] [%] | number of colonies relative to untreated cells ([2]; luciferase shRNA U2OS cells) [%] | tumor diameter at start of treatment [3] [cm] | tumor diameter after fourteen days of treatment [3] [cm]
1 | N.N.[Cl][Pt][Cl] [cisplatin] | ~42 | 4 | ~40 | 1.3 | 0.4
2 | COc1cccc2c1C(=O)c1c(O)c3c(c(O)c1C2=O)C[C@@](O)(C(=O)CO)C[C@@H]3O[C@H]1C[C@H](N)[C@H](O)[C@H](C)O1 [doxorubicin] | 36.3 | 2 | ~40 | 1.4 | 0.5
